Bridges are numbered along the chain shown (N, C = ends). [ ]: non-standard residue; d: D form. The star is where a group is joined. DOTA = O=C(O)CN1CCN(CC(=O)O)CCN(CC(=O)*)CCN(CC(=O)O)CC1; Lys(Me3) = C[N+](C)(C)CCCC[C@H](N)C(=O)O; Cit = NC(=O)NCCC[C@H](N)C(=O)O; PEG4 = NCCOCCOCCOCCOCCC(=O)O
system: not listed separately; assay: in vivo; settings: Sprague Dawley, rat, iv
Protocol: To begin, double jugular vein-cannulated Sprague Dawley rats were dosed with bolus intravenous injections of miniproteins (0.03-0.3 mg/kg) and FITC-sinistrin. Nine blood collection timepoints were taken from 0-2 h, processed to plasma with K2 EDTA, and were frozen for subsequent bioanalysis. Plasma miniprotein concentrations were measured by LC-MS/MS. To control for inter-animal renal clearance differences, and to compare with glomerular filtration rate (GFR), the miniprotein was co-formulated with a molecular marker of GFR, FITC-sinistrin (FS) (Pill et al., 2005). Plasma FITC-sinistrin was measured fluorometrically. All unknown sample measurements were interpolated against known authentic standards spiked into normal rat plasma to calculate concentration. Finally, non-compartmental analysis was performed to estimate plasma pharmacokinetic parameters.

Molecule	half-life
CC[C@H](C)[C@@H]1NC(=O)[C@H](Cc2ccc(O)cc2)NC(=O)[C@H](CCC(=O)O)NC(=O)[C@@H]2CSSC[C@@H](C(=O)N[C@@H](CO)C(=O)O)NC(=O)CNC(=O)[C@H](CC(C)C)NC(=O)[C@H](CC(N)=O)NC(=O)[C@H](CC(=O)O)NC(=O)[C@H](CC(C)C)NC(=O)[C@H]([C@@H](C)CC)NC(=O)[C@H](CCC(=O)O)NC(=O)[C@H](CCC(=O)O)NC(=O)[C@H]([C@@H](C)CC)NC(=O)[C@H](CSSC[C@H](NC(=O)CCOCCOCCOCCOCCNC(=O)CN3CCN(CC(=O)O)CCN(CC(=O)O)CCN(CC(=O)O)CC3)C(=O)N[C@@H](CC(=O)O)C(=O)N[C@@H](Cc3ccc(O)cc3)C(=O)N[C@@H](CC(=O)O)C(=O)N[C@@H](CCC(=O)O)C(=O)N[C@@H](CCC(N)=O)C(=O)N[C@@H](Cc3ccccc3)C(=O)N[C@@H](Cc3ccccc3)C(=O)N[C@@H]([C@@H](C)O)C(=O)N[C@@H](C)C(=O)N[C@@H](CC(C)C)C(=O)N[C@@H](CCCCN)C(=O)N[C@@H](CCCNC(=N)N)C(=O)N[C@@H](CC(C)C)C(=O)N[C@@H](CCCNC(=N)N)C(=O)NCC(=O)NCC(=O)N[C@@H](CC(=O)O)C(=O)N[C@@H]([C@@H](C)CC)C(=O)N2)NC(=O)[C@H](CC(C)C)NC(=O)CNC(=O)[C@@H]2CCCN2C(=O)[C@H](CC(C)C)NC(=O)[C@H](Cc2ccc(O)cc2)NC(=O)[C@H](CCC(N)=O)NC(=O)[C@H](Cc2ccccc2)NC(=O)[C@H](CO)NC(=O)[C@H](C)NC(=O)[C@H](CCC(N)=O)NC1=O [Compound C240]	29.7 min
CC[C@H](C)[C@@H]1NC(=O)[C@H](Cc2ccc(O)cc2)NC(=O)[C@H](CCC(=O)O)NC(=O)[C@@H]2CSSC[C@@H](C(=O)N[C@@H](CO)C(=O)O)NC(=O)CNC(=O)[C@H](CC(C)C)NC(=O)[C@H](CC(N)=O)NC(=O)[C@H](CC(=O)O)NC(=O)[C@H](CC(C)C)NC(=O)[C@H]([C@@H](C)CC)NC(=O)[C@H](CCC(=O)O)NC(=O)[C@H](CCC(=O)O)NC(=O)[C@H]([C@@H](C)CC)NC(=O)[C@H](CSSC[C@H](NC(=O)CCOCCOCCOCCOCCNC(=O)CN3CCN(CC(=O)O)CCN(CC(=O)O)CCN(CC(=O)O)CC3)C(=O)N[C@@H](CC(=O)O)C(=O)N[C@@H](Cc3ccc(O)cc3)C(=O)N[C@@H](CC(=O)O)C(=O)N[C@@H](CCC(=O)O)C(=O)N[C@@H](CCC(N)=O)C(=O)N[C@@H](Cc3ccccc3)C(=O)N[C@@H](Cc3ccccc3)C(=O)N[C@@H]([C@@H](C)O)C(=O)N[C@@H](C)C(=O)N[C@@H](CC(C)C)C(=O)N[C@@H](C)C(=O)N[C@@H](CCCNC(=N)N)C(=O)N[C@@H](CC(C)C)C(=O)N[C@@H](CCCNC(=N)N)C(=O)NCC(=O)N[C@@H](C)C(=O)N[C@@H](CC(=O)O)C(=O)N[C@@H]([C@@H](C)CC)C(=O)N2)NC(=O)[C@H](CCC(=O)O)NC(=O)CNC(=O)[C@@H]2CCCN2C(=O)[C@H](CC(C)C)NC(=O)[C@H](Cc2ccc(O)cc2)NC(=O)[C@H](CCC(N)=O)NC(=O)[C@H](Cc2ccccc2)NC(=O)[C@H](CO)NC(=O)[C@H](C)NC(=O)[C@H](CCC(N)=O)NC1=O [Compound C246]	38 min
CC[C@H](C)[C@@H]1NC(=O)[C@H](Cc2ccc(O)cc2)NC(=O)[C@H](CCC(=O)O)NC(=O)[C@@H]2CSSC[C@@H](C(=O)N[C@@H](CO)C(=O)O)NC(=O)CNC(=O)[C@H](CC(C)C)NC(=O)[C@H](CC(N)=O)NC(=O)[C@H](CC(=O)O)NC(=O)[C@H](CC(C)C)NC(=O)[C@H]([C@@H](C)CC)NC(=O)[C@H](CCC(=O)O)NC(=O)[C@H](CCC(=O)O)NC(=O)[C@H]([C@@H](C)CC)NC(=O)[C@H](CSSC[C@H](NC(=O)CCOCCOCCOCCOCCNC(=O)CN3CCN(CC(=O)O)CCN(CC(=O)O)CCN(CC(=O)O)CC3)C(=O)N[C@@H](CC(=O)O)C(=O)N[C@@H](Cc3ccc(O)cc3)C(=O)N[C@@H](CC(=O)O)C(=O)N[C@@H](CCC(=O)O)C(=O)N[C@@H](CCC(N)=O)C(=O)N[C@@H](Cc3ccccc3)C(=O)N[C@@H](Cc3ccccc3)C(=O)N[C@@H]([C@@H](C)O)C(=O)N[C@@H](C)C(=O)N[C@@H](CC(C)C)C(=O)N[C@@H](CCCCN)C(=O)N[C@@H](CCCNC(=N)N)C(=O)N[C@@H](CC(C)C)C(=O)N[C@@H](CCCNC(=N)N)C(=O)NCC(=O)N[C@@H](C)C(=O)N[C@@H](CC(=O)O)C(=O)N[C@@H]([C@@H](C)CC)C(=O)N2)NC(=O)[C@H](CCC(=O)O)NC(=O)CNC(=O)[C@@H]2CCCN2C(=O)[C@H](CC(C)C)NC(=O)[C@H](Cc2ccc(O)cc2)NC(=O)[C@H](CCC(N)=O)NC(=O)[C@H](Cc2ccccc2)NC(=O)[C@H](CO)NC(=O)[C@H](C)NC(=O)[C@H](CCC(N)=O)NC1=O [Compound C270]	28.3 min
{DOTA-PEG4}-CDYDEQFFTALA[Cit]LRGGDICEYIQA[Lys(Me3)]FQYLPGLCIEEILDNLGCS-OH (disulfide 1-34, 20-44 (inferred)) [Compound C261]	28.7 min
{DOTA-PEG4}-CEYDEEFFTALARLRGGDICQYIQAKFQYLPGQCIEEILDNLGCS-OH (disulfide 1-34, 20-44) [Compound C242]	29.7 min
{DOTA-PEG4}-CEYDEEFFTALKRLRGGDICYYIQAKFQYLPKLCIEEILDNLGCS-OH (disulfide 1-34, 20-44) [Compound C118]	19.7 min
{DOTA-PEG4}-CEYDEQFFTALARLRGGDICEYIQAKFQYLPGLCIEEILDNLGCS-OH (disulfide 1-34, 20-44) [Compound C219]	25.4 min
{DOTA-PEG4}-CEYDEQFFTALKALRGGDICYYIQASFNYLPDLCIEEILDNLGCS-OH (disulfide 1-34, 20-44 (inferred)) [Compound C114]	25.5 min

system: un-transfected HEK293 cells; assay: Background binding to un-transfected HEK293 cells (cell microarray suitability); type: cell-based, human; settings: biotin-labeled molecules
Protocol: To evaluate potential off-target binding, six biotin-labeled molecules were tested in a cell microarray platform having 6,416 different human proteins spanning diverse functions and subcellular locations.

Molecule	Background binding to un-transfected HEK293 cells
CC[C@H](C)[C@@H]1NC(=O)[C@H](Cc2ccc(O)cc2)NC(=O)[C@H](CCC(=O)O)NC(=O)[C@@H]2CSSC[C@@H](C(=O)N[C@@H](CO)C(=O)O)NC(=O)CNC(=O)[C@H](CC(C)C)NC(=O)[C@H](CC(N)=O)NC(=O)[C@H](CC(=O)O)NC(=O)[C@H](CC(C)C)NC(=O)[C@H]([C@@H](C)CC)NC(=O)[C@H](CCC(=O)O)NC(=O)[C@H](CCC(=O)O)NC(=O)[C@H]([C@@H](C)CC)NC(=O)[C@H](CSSC[C@H](NC(=O)CCOCCOCCOCCOCCNC(=O)CCCC[C@@H]3SC[C@@H]4NC(=O)N[C@@H]43)C(=O)N[C@@H](CC(=O)O)C(=O)N[C@@H](Cc3ccc(O)cc3)C(=O)N[C@@H](CC(=O)O)C(=O)N[C@@H](CCC(=O)O)C(=O)N[C@@H](CCC(N)=O)C(=O)N[C@@H](Cc3ccccc3)C(=O)N[C@@H](Cc3ccccc3)C(=O)N[C@@H]([C@@H](C)O)C(=O)N[C@@H](C)C(=O)N[C@@H](CC(C)C)C(=O)N[C@@H](CCCCN)C(=O)N[C@@H](CCCNC(=N)N)C(=O)N[C@@H](CC(C)C)C(=O)N[C@@H](CCCNC(=N)N)C(=O)NCC(=O)NCC(=O)N[C@@H](CC(=O)O)C(=O)N[C@@H]([C@@H](C)CC)C(=O)N2)NC(=O)[C@H](CC(C)C)NC(=O)CNC(=O)[C@@H]2CCCN2C(=O)[C@H](CC(C)C)NC(=O)[C@H](Cc2ccc(O)cc2)NC(=O)[C@H](CCC(N)=O)NC(=O)[C@H](Cc2ccccc2)NC(=O)[C@H](CO)NC(=O)[C@H](C)NC(=O)[C@H](CCC(N)=O)NC1=O [Compound C190]	low-background binding

Reference: US12427212B2, “Nectin-4 binding miniproteins, conjugates and uses thereof” (Aktis Oncology, Inc., priority 2023, dated 2025)
